Experimental data as given in BindingDB's records for PubMed 32942081 (Jamia Millia Islamia, 2020).

Target: T1, Amine oxidase [flavin-containing] B (Homo sapiens, UniProt P27338)
T1 sequence (P27338 whole entry): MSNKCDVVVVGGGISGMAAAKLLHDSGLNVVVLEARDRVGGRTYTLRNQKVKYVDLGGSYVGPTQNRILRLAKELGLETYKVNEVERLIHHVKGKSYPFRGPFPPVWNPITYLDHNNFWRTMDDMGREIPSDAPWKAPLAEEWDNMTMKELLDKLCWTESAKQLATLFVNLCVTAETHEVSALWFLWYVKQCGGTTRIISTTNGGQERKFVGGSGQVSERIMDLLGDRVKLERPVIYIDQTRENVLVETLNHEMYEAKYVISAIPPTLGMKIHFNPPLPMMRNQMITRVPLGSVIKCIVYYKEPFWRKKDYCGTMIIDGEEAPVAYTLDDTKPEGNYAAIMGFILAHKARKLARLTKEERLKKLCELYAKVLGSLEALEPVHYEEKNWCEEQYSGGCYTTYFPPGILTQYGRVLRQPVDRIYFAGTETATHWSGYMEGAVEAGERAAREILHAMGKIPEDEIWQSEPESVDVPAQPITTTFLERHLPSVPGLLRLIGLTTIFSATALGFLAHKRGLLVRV
Experiment: Inhibition of human MAO-B using tyramine as substrate by amplex red assay

In the case of `Cc1ccc(C2=NO[C@@H](c3ccc(Cl)c(Cl)c3)C2)cc1`, the IC50 is reported as 1.9 nM.
